# Assays:
# [1] = test system: TCR4-expressing T cells co-cultured with HLA-A3+ antigen presenting cells (Cos-7); assay: TNFα production by TCR4-transduced T cells (intracellular cytokine staining); conditions: Conc. 100 (unit not given), mean of three replicates
# HLA-A3 [2] = biological target: T1, HLA-A3 (Homo sapiens, UniProt P04439); conditions: PIK3CA–HLA-A3 complex; quoted in peer review; cited from earlier work
# T1 construct: the extracellular domain of the MHC heavy chain, β2-microglobulin, TCR α and β chains; made in house
# HLA-A3 [3] = biological target: T1, HLA-A3; assay: 19F NMR of 5F-Trp-substituted peptide/HLA-A3; conditions: 5F-Trp6, 0.3 mM complex, pH 7.4, 5 °C
# Procedure: ^19F NMR spectra were recorded using a Bruker 600 MHz NMR instrument with a QCI cryogenic probe at NMRFAM, University of Wisconsin-Madison. All proteins were solubilized in 10 mM HEPES, 150 mM NaCl, pH 7.4 with 10% D2O (Cambridge Isotope Laboratories DLM-4-25).
# NMR probe temperature was maintained at a calibrated value of 5.2 °C. […] To improve the signal/noise ratio, we compared ^19F 1D spectra recorded with and without proton decoupling. Decoupling caused a noticeable reduction of the signal intensity of the ^19F nuclear spin in the context of the complexes; therefore, all spectra were collected un-decoupled to maximize sensitivity. The reference frequency of the ^19F channel was set through internal routines of the Topspin acquisition software after the spectrometer was locked on D2O. The recycle delay was optimized to find the best compromise between the longitudinal relaxation and the repetition rate for signal averaging. The optimal values of D1 = 0.4 s and AQ = 0.59 s were used in all experiments. One-dimensional fluorine experiments were recorded with the pulse program zgflqn.F from the standard Bruker library with TD1 = 134,078 points and a spectral width (SW) of 200 ppm. […] The 4 h data blocks were checked individually for a possible frequency drift (which was not detected) and added to obtain combined datasets with improved signal/noise ratio. […]
# [4] = test system: TCR4-expressing T cells co-cultured with HLA-A3+ antigen presenting cells (Cos-7); assay: CD107a degranulation of TCR4-transduced T cells, peptide-pulsed HLA-A3+ APC (flow cytometry); conditions: for CD107a, absolute frequency: TCR4, 6 h co-culture, E:T 1:1, mean of three replicates
# Procedure: TCR-T cells were utilized for downstream functional analysis at days 5–8 post transduction.
# Cos-7 cells were electroporated with 100 μg/mL of HLA-A*03:01 mRNA and plated into 96-well round-bottom plates overnight. […] Cells were washed with 1× PBS to remove any unbound peptide. […] Cells were washed again with PBS and then fixed and permeabilized for 15 min at 4 °C. […] All antibodies were used at a final concentration of 5 μg/mL. Finally, cells were washed with perm-wash buffer, suspended in 2% FBS in PBS, and data acquired on an X20 LSR Fortessa flow cytometer with the BD FACSDiva software.
# T cells = conditions: high, supraphysiological concentrations; cited from earlier work
# [5] = test system: TCR3-expressing T cells co-cultured with HLA-A3+ antigen presenting cells (Cos-7); assay: TNFα production by TCR3-transduced T cells (intracellular cytokine staining); conditions: Conc. 100 (unit not given), mean of three replicates
# HLA-A3 [6] = biological target: T1, HLA-A3; design: method as in 2 sources, one per row (each row's own in cited_ref): ref 15 (a number printed in a supplementary file, which may have a reference list of its own: not looked up in the article's list) ||| ref 10, ref 15; conditions: cited from earlier work
# HLA-A3 [7] = biological target: T1, HLA-A3; assay: Peptide dissociation from HLA-A3 by fluorescence anisotropy; format: binding
# T1 sequence (P04439 25-308 limits assumed): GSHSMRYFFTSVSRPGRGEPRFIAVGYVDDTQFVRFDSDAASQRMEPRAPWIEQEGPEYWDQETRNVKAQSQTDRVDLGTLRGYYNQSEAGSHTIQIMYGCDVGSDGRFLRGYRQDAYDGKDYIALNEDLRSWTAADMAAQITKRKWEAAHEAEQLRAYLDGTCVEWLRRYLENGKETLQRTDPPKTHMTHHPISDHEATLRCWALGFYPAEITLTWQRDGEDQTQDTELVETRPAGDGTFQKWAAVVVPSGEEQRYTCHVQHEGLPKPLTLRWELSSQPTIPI
# T1 sequence (P61769 21-119 partner): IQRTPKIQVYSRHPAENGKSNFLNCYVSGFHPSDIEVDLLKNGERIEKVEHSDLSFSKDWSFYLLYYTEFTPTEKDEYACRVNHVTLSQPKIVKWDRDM
sequence,measurement,setting,value
"AHHGGWTTK [WT peptide, wild-type PI3Kα peptide, His at position 2, presented by HLA-A3]","TNFα, absolute frequency",[1],2.4
same,melting temperature (thermal stability),HLA-A3 [2],37 oC
same,share of remaining 19F population,HLA-A3 [3]; broad peak at –[…],roughly 50%
same,share of total 19F signal,HLA-A3 [3]; sharp peak at –125.12 ppm (degradation),about 19%
same,"CD107a, absolute frequency",[4]; peptide 0.001 ug/mL,1.367
same,"CD107a, absolute frequency",[4]; peptide 0.01 ug/mL,3.473
same,"CD107a, absolute frequency",[4]; peptide 0.1 ug/mL,1.267
same,"CD107a, absolute frequency",[4]; peptide 1 ug/mL,1.09
same,"CD107a, absolute frequency",[4]; peptide 10 ug/mL,1.843
same,"CD107a, absolute frequency",[4]; peptide 1.00E-05 ug/mL,1.503
same,stimulation (CD107a),"[4]; TCR4 T cells, peptide concentrations as high as 10 μM",no stimulation was evident
same,T cell responses,T cells,no responses were seen
same,"TNFα, absolute frequency",[5],4.823
same,half-life of peptide/HLA-A3 complex,"HLA-A3 [6]; 37 °C (b252/b262 context), quoted in peer review",4.8 min
same,"half-life, peptide dissociation","HLA-A3 [6]; HLA-A3, 37 °C, fluorescence anisotropy",4.82 min
same,peptide/HLA-A3 dissociation in words,"HLA-A3 [7]; 4 °C, 100 nM fluorescein-labeled peptide/HLA-A3, 100 μM unlabeled peptide, pH 7.4",only a small amount of dissociation observed over an extended period
same,peptide/HLA-A3 stability in words,"HLA-A3 [7]; 37 °C and 25 °C, 100 nM fluorescein-labeled peptide/HLA-A3, pH 7.4",less stable at 37 °C and 25 °C
